The text below walks through data of patent publication US11939361B2, “Compositions of peptide inhibitors of Interleukin-23 receptor” (Janssen Pharmaceutica NV, priority 2020, dated 2024).

Where two headings read alike, the source gives them in different places.

The subject of test [1] is IL-23 induced phosphorylation of STAT3. Nature of the test: Ex vivo whole blood phosphorylation of STAT3 assay, FIH 25 mg MAD cohort. Format: in vivo. The note with it: human, 25 mg oral once a day, 3 subjects, 100 ng/mL IL-23. The method, then:
An ex vivo whole blood IL-23 induced STAT3 phosphorylation assay was also used to evaluate the systemic pharmacodynamic activity of the orally administered peptide of SEQ ID NO: 1 in the first-in-human study. This proximal IL-23R signaling assay was performed by analyzing IL-23 induced phosphorylation of STAT3 using a flow cytometer. Assay was implemented in the 25 mg MAD cohort, at multiple timepoints on Day 1 and Day 10, where healthy volunteers were given placebo or 25 mg of peptide of SEQ ID NO: 1 orally once a day for 10 consecutive days. On Days 1 and 10, when the assay was performed, subjects received their dose of placebo or peptide of SEQ ID NO: 1 following an overnight fast of approximately 10 hours and remained fasted for approximately 4 hours following dosing. […] Therefore, lower STAT3 phosphorylation as readout by the assay is associated with sufficient exposure to achieve systemic pharmacodynamic activity of orally dosed peptide of SEQ ID NO: 1. Since there is no dilution of blood required, and the readout is more proximal than IFNγ production, and the response is measured in the specific subset of immune cells that respond to IL-23, the pSTAT3 assay is a more sensitive pharmacodynamic readout than IFNγ. […]

The subject of test [2] is IL-23 and IL-1β-induced IL-17A secretion in whole blood. The experiment in a line: Rat whole blood assay ex vivo after oral dosing, IL-17A ELISA. Format: in vivo, Sprague-Dawley rats. The note with it: for inhibition of IL-23 and IL-1β-induced IL-17A secretion in whole blood: p.o., blood 2 h after dosing; for IC50: orally dosed rats, read-out: dilution-adjusted ex vivo IC50. The text has this:
A rat whole blood assay was used to evaluate the systemic pharmacologic activity of the orally administered peptide of SEQ ID NO: 1. After oral dosing Sprague-Dawley rats with the peptide of SEQ ID NO: 1, blood was drawn from the rats and stimulated ex-vivo with rat IL-23 plus IL-1β. An ELISA assay was used to measure the presence of IL-17A. The production of IL-17A is expected to be suppressed if IL-23 is inhibited. This assay confirms that systemic exposure of orally dosed peptide of SEQ ID NO: 1 is associated with systemic activity, as measured by lower IL-17A production.
Two or six hours after dosing, animals were euthanized and blood collected as described based on the following.
For determination of peptide concentration, an aliquot of blood from peptide-treated rats was deposited into K2EDTA microtainer tubes and processed to plasma by centrifugation at 16,100×g for 5 minutes. Plasma was deposited into 5% volume of protease inhibitor (1 cocktail tablet dissolved in 2 mL PBS without Ca^++ and Mg^++) and stored at −80° C. for bioanalysis of test article by LCMS. The remainder of each blood sample was separately diluted in pre-warmed RPMI-1640 (with glutamine and HEPES) at a ratio of one part blood to four parts medium. The diluted blood was mixed by pipetting and kept at room temperature while working stocks of rat IL-23 and IL-1β were prepared in RPMI-1640. The blood was mixed again and 240 μL was pipetted per well into 96-well, round-bottom assay plates, followed by IL-23 and IL-1β stimulation as described below.
A total of 10 μL of medium supplemented with IL-23 and IL-1β or IL-1β alone was added to each well of diluted blood such that the final concentration of IL-23 was 100, 20, or 4 ng/mL and the final concentration of IL-1β was 4 ng/mL. The assay plates were incubated at 37° C. in 5% CO2. After ˜24 hours, the assay plates were centrifuged at 1,300 rpm for 6 minutes at room temperature, and at least 100 μL of cell culture supernatant were collected into 96-well, V-bottom plates. The plates containing supernatants were sealed and placed on ice for immediate measurement of IL-17A or frozen at −80° C.
To measure IL-17A in cell culture supernatants, the thawed supernatants were centrifuged at 1,300 rpm for 10 minutes at 4° C. A total of 20 μL of cell culture supernatant was mixed with 80 μL of NS buffer (provided with the rat IL-17A ELISA kit). The diluted samples as well as a freshly prepared serial titration of rat IL-17A (for standard curve) were combined with affinity tag labeled capture and reporter conjugated detector antibodies in 96-well plates (provided with the rat IL-17A ELISA kit). Following a 1-hour incubation at room temperature with shaking, each well was washed 3 times with 350 μL/well wash buffer. After the final wash, the plates were inverted and blotted to remove excess liquid. The plates were developed with TMB substrate for 10 minutes, protected from light, with shaking. After stopping the colorimetric reaction, the absorbance in individual wells was read at 450 nm using a SpectraMax 340PC plate reader.
A standard curve was generated in duplicate for each ELISA plate. The standard curve data were analyzed with a four-parameter curve fit with 1/y^2 weighting using SoftMax Pro software. Supernatant IL-17A levels were interpolated or extrapolated from plate-specific standard curves using non-background subtracted optical density at 450 nm (OD450) values in SoftMax Pro and corrected for the dilution factor used in the ELISA assay in Microsoft Excel.
Background: An ELISA detects its analyte on a solid surface through an enzyme-linked reagent.

For the compound `CC(=O)NCCCC[C@@H]1NC(=O)[C@H](Cc2c[nH]c3c(C)cccc23)NC(=O)[C@H]([C@@H](C)O)NC(=O)[C@H](CC(N)=O)NC(=O)[C@@H](NC(C)=O)C(C)(C)SSC(C)(C)[C@@H](C(=O)N[C@@H](Cc2ccc(OCCN)cc2)C(=O)N[C@@H](Cc2ccc3ccccc3c2)C(=O)NC2(C(=O)N[C@@H](CCC(=O)O)C(=O)N[C@@H](CC(N)=O)C(=O)N[C@@H](Cc3cccnc3)C(=O)N(C)CC(N)=O)CCOCC2)NC1=O` [SEQ ID NO: 1, Ac-[Pen]*—N-T-[W(7-Me)]-[Lys(Ac)]-[Pen]*-Phe[4-(2-aminoethoxy)]-[2-Nal]-[THP]-E-N-[3-Pal]-Sarc-NH2], in test [1], the “inhibition of STAT3 phosphorylation in memory CD26high CD4+ T cells, memory CD26high CD8+ T cells and CD26high NKT cells” value is “near-complete inhibition”. Moreover, the “median IL-17A production relative to vehicle control” value in test [2] (10 mg/kg p.o., 2 hours post-dosing, 100, 20, or 4 ng/mL IL-23 and 4 ng/mL IL-1β) is given as “significantly reduced”. Besides, the “median IL-17A levels” value in test [2] (10 mg/kg p.o., 6 hours post-dosing, 4 ng/mL IL-23) is “significant decrease”. Also, in test [2] (10 mg/kg p.o., 6 hours post-dosing, 100 and 20 ng/mL IL-23 and IL-1β), the “effect on ex vivo IL-17A response” value is recorded as “no significant effect”. Also, the “inhibition of IL-23 and IL-1β-induced IL-17A secretion in whole blood” value in test [2] (0.03-100 mg/kg) is given as “dose-dependent inhibition”; in test [2] (doses of 1 mg/kg or lower) it was “limited effect”; in test [2] (doses of 30 and 100 mg/kg), “complete or nearly complete inhibition”. The IC50 (commonly the concentration needed to halve the response being measured) was 0.032 nM in test [2] (blood challenged with 4 ng/mL IL-23 plus 4 ng/mL IL-1β) and 0.27 nM in test [2] (blood challenged with 20 ng/mL IL-23 plus 4 ng/mL IL-1β).
